The text below walks through data of ChEMBL document CHEMBL1153280, “Synthesis and in vitro activity of dicationic bis-benzimidazoles as a new class of anti-MRSA and anti-VRE agents” (2009).

What all share (type): functional
The test system of one test is Bacillus subtilis. As to the kind of experiment: Antibacterial activity against Bacillus subtilis ATCC 23857 by NCCLS method.
The next test deals with Clostridium perfringens. As to the kind of experiment: Antibacterial activity against Clostridium perfringens ATCC 10388 by NCCLS method.
For test [1], the system named is Staphylococcus aureus. Put plainly: Antibacterial activity against methicillin-resistant Staphylococcus aureus ATCC 33591 by NCCLS method.
The test system of another test is Bacteroides fragilis. As to the kind of experiment: Antibacterial activity against Bacteroides fragilis ATCC 23745 by NCCLS method.
The next test has as its system Bacillus cereus. Put plainly: Antibacterial activity against Bacillus cereus ATCC 11778 by NCCLS method.
The test system of the next test is Enterococcus faecium. Put plainly: Antibacterial activity against vancomycin-resistant Enterococcus faecium ATCC 700221 by NCCLS method.
Test [2] has as its system Staphylococcus epidermidis. As to the kind of experiment: Antibacterial activity against Staphylococcus epidermidis ATCC 12228 by NCCLS method.
A further test relates to Enterococcus faecalis. Put plainly: Antibacterial activity against vancomycin-resistant Enterococcus faecalis ATCC 51575 by NCCLS method.
The test system of test [3] is Staphylococcus epidermidis. Put plainly: Antibacterial activity against methicillin-resistant Staphylococcus epidermidis ATCC 51625 by NCCLS method.
Test [4] has as its system Staphylococcus aureus. As to the kind of experiment: Antibacterial activity against multidrug-resistant Staphylococcus aureus BAA-39 by NCCLS method.
For a further test, the system named is Streptococcus pneumoniae. Put plainly: Antibacterial activity against Streptococcus pneumoniae ATCC 6301 by NCCLS method.
The subject of test [5] is Staphylococcus aureus. Put plainly: Antibacterial activity against Staphylococcus aureus ATCC 29213 by NCCLS method.

Each structure is given as a SMILES string. In brackets after ≈: the same amount, converted by molar mass.

Consider `CCCCNC(=N)c1ccc2[nH]c(-c3ccc(CCc4ccc(-c5nc6cc(C(=N)NCCCC)ccc6[nH]5)cc4)cc3)nc2c1`, for which the MIC with Bacillus subtilis came out at 1 µg/mL (≈ 1.64 µM); in the test on Clostridium perfringens, 0.5 µg/mL (≈ 0.819 µM); with Staphylococcus aureus [1], 2 µg/mL (≈ 3.27 µM); with Bacteroides fragilis it was 32 µg/mL (≈ 52.4 µM); in the test on Bacillus cereus it was 4 µg/mL (≈ 6.55 µM); with Enterococcus faecium it was 2 µg/mL (≈ 3.27 µM). The MIC in [2] came out at 0.25 µg/mL (≈ 0.409 µM); with Enterococcus faecalis, 32 µg/mL (≈ 52.4 µM); in test [3] it was 0.5 µg/mL (≈ 0.819 µM); with Staphylococcus aureus [4], 4 µg/mL (≈ 6.55 µM); in the test with Streptococcus pneumoniae, 1 µg/mL (≈ 1.64 µM); in the test with Staphylococcus aureus [5] it was 4 µg/mL (≈ 6.55 µM).
With `CCC(C)NC(=N)c1ccc2[nH]c(-c3ccc(CCc4ccc(-c5nc6cc(C(=N)NC(C)CC)ccc6[nH]5)cc4)cc3)nc2c1` (stereo not drawn), the MIC against Bacillus subtilis amounted to 0.25 µg/mL (≈ 0.409 µM); with Clostridium perfringens, 0.5 µg/mL (≈ 0.819 µM); against Staphylococcus aureus [1], 0.25 µg/mL (≈ 0.409 µM); against Bacteroides fragilis, 2 µg/mL (≈ 3.27 µM); in the test with Bacillus cereus it was 0.5 µg/mL (≈ 0.819 µM); with Enterococcus faecium, 0.5 µg/mL (≈ 0.819 µM). In addition, the MIC in test [2] was < 0.06 µg/mL; against Enterococcus faecalis, 2 µg/mL (≈ 3.27 µM); in [3], 0.12 µg/mL (≈ 0.196 µM); with Staphylococcus aureus [4] it was 0.5 µg/mL (≈ 0.819 µM); in the test with Streptococcus pneumoniae it was 0.12 µg/mL (≈ 0.196 µM); in the test on Staphylococcus aureus [5] it was 1 µg/mL (≈ 1.64 µM).
As for `CC(C)NC(=N)c1ccc2[nH]c(-c3ccc(CCc4ccc(-c5nc6cc(C(=N)NC(C)C)ccc6[nH]5)nc4)cc3)nc2c1`, the MIC was 1 µg/mL (≈ 1.71 µM) in the test with Bacillus subtilis; 8 µg/mL (≈ 13.7 µM) in the test on Clostridium perfringens; 4 µg/mL (≈ 6.85 µM) against Staphylococcus aureus [1]; 32 µg/mL (≈ 54.8 µM) with Bacteroides fragilis; 0.5 µg/mL (≈ 0.857 µM) against Bacillus cereus; 1 µg/mL (≈ 1.71 µM) with Enterococcus faecium. The minimal inhibitory concentration (MIC) is 0.25 µg/mL (≈ 0.428 µM) in test [2]; 2 µg/mL (≈ 3.43 µM) in the test on Enterococcus faecalis; 1 µg/mL (≈ 1.71 µM) in test [3]; 8 µg/mL (≈ 13.7 µM) with Staphylococcus aureus [4]; 0.12 µg/mL (≈ 0.206 µM) against Streptococcus pneumoniae; 4 µg/mL (≈ 6.85 µM) against Staphylococcus aureus [5].
In the case of `N=C(NC1CC1)c1ccc2[nH]c(-c3ccc(CCc4ccc(-c5nc6cc(C(=N)NC7CC7)ccc6[nH]5)cc4)cc3)nc2c1`, the MIC against Bacillus subtilis came out at 1 µg/mL (≈ 1.73 µM); in the test with Clostridium perfringens it was 1 µg/mL (≈ 1.73 µM); in the test with Staphylococcus aureus [1] it was 8 µg/mL (≈ 13.8 µM); against Bacteroides fragilis, 32 µg/mL (≈ 55.3 µM); against Bacillus cereus it was 0.25 µg/mL (≈ 0.432 µM); against Enterococcus faecium it was 1 µg/mL (≈ 1.73 µM). Further, the minimal inhibitory concentration (MIC) in test [2] was 0.12 µg/mL (≈ 0.207 µM); against Enterococcus faecalis, 32 µg/mL (≈ 55.3 µM); in [3] it was 0.25 µg/mL (≈ 0.432 µM); against Staphylococcus aureus [4] it was 16 µg/mL (≈ 27.6 µM); in the test on Streptococcus pneumoniae, < 0.06 µg/mL; in the test on Staphylococcus aureus [5], 8 µg/mL (≈ 13.8 µM).
Consider `CC(C)NC(=N)c1ccc2[nH]c(-c3ccc(CCc4ccc(-c5nc6cc(C(=N)NC(C)C)ccc6[nH]5)cn4)cc3)nc2c1`, for which the minimal inhibitory concentration (MIC) against Bacillus subtilis is 32 µg/mL (≈ 54.8 µM); in the test on Clostridium perfringens it was 0.5 µg/mL (≈ 0.857 µM); against Staphylococcus aureus [1] it was 8 µg/mL (≈ 13.7 µM); with Bacteroides fragilis, 16 µg/mL (≈ 27.4 µM); against Bacillus cereus, 8 µg/mL (≈ 13.7 µM); in the test with Enterococcus faecium, 16 µg/mL (≈ 27.4 µM). Also, the minimum inhibitory concentration (MIC) in [2] was 2 µg/mL (≈ 3.43 µM); in the test on Enterococcus faecalis it was 4 µg/mL (≈ 6.85 µM); in [3] it was 4 µg/mL (≈ 6.85 µM); against Staphylococcus aureus [4], 8 µg/mL (≈ 13.7 µM); against Streptococcus pneumoniae, 8 µg/mL (≈ 13.7 µM); in the test with Staphylococcus aureus [5] it was 16 µg/mL (≈ 27.4 µM).
On to `CC(C)NC(=N)c1ccc2[nH]c(-c3ccc(CCc4ccc(-c5nc6cc(C(=N)NC(C)C)ccc6[nH]5)s4)cc3)nc2c1`, for which the minimal inhibitory concentration (MIC) is 0.5 µg/mL (≈ 0.849 µM) with Bacillus subtilis; 0.25 µg/mL (≈ 0.425 µM) against Clostridium perfringens; 0.5 µg/mL (≈ 0.849 µM) with Staphylococcus aureus [1]; 4 µg/mL (≈ 6.79 µM) in the test on Bacteroides fragilis; 0.25 µg/mL (≈ 0.425 µM) against Bacillus cereus; 0.12 µg/mL (≈ 0.204 µM) in test [2]. Also, the MIC turned out to be 0.5 µg/mL (≈ 0.849 µM) with Enterococcus faecalis, 0.12 µg/mL (≈ 0.204 µM) in test [3], 0.5 µg/mL (≈ 0.849 µM) against Staphylococcus aureus [4] and 1 µg/mL (≈ 1.7 µM) in the test with Staphylococcus aureus [5].
As to `CC(C)NC(=N)c1ccc2[nH]c(-c3ccc(CCc4cc(-c5nc6cc(C(=N)NC(C)C)ccc6[nH]5)cs4)cc3)nc2c1`, the MIC came to 0.5 µg/mL (≈ 0.849 µM) in the test with Bacillus subtilis; 0.25 µg/mL (≈ 0.425 µM) in the test with Clostridium perfringens; 0.25 µg/mL (≈ 0.425 µM) against Staphylococcus aureus [1]; 1 µg/mL (≈ 1.7 µM) with Bacteroides fragilis; 0.25 µg/mL (≈ 0.425 µM) against Bacillus cereus; 0.25 µg/mL (≈ 0.425 µM) in the test with Enterococcus faecium. In addition, the minimal inhibitory concentration (MIC) worked out at 1 µg/mL (≈ 1.7 µM) with Enterococcus faecalis; 0.25 µg/mL (≈ 0.425 µM) in test [3]; 1 µg/mL (≈ 1.7 µM) against Staphylococcus aureus [4]; 0.12 µg/mL (≈ 0.204 µM) in the test on Streptococcus pneumoniae; 1 µg/mL (≈ 1.7 µM) in the test with Staphylococcus aureus [5].
Take `N=C(N)c1ccc2[nH]c(-c3ccc(CCc4ccc(-c5nc6cc(C(=N)N)ccc6[nH]5)cc4)cc3)nc2c1`: the minimal inhibitory concentration (MIC) against Bacillus subtilis was 32 µg/mL (≈ 64.2 µM); in the test with Clostridium perfringens, > 32 µg/mL; with Staphylococcus aureus [1], > 32 µg/mL; in the test with Bacteroides fragilis it was > 32 µg/mL; against Bacillus cereus, > 32 µg/mL; against Enterococcus faecium it was 32 µg/mL (≈ 64.2 µM). For the same compound, the minimal inhibitory concentration (MIC) in [2] was 4 µg/mL (≈ 8.02 µM); against Enterococcus faecalis it was > 32 µg/mL; in test [3], 32 µg/mL (≈ 64.2 µM); against Staphylococcus aureus [4], > 32 µg/mL; in the test with Streptococcus pneumoniae, > 32 µg/mL; in the test on Staphylococcus aureus [5], > 32 µg/mL.
